Experiments:
[1] = biological target: T1, estrogen receptor α (ERα) (Homo sapiens, UniProt P03372); assay: Binding to estrogen receptor α; details: FIG. 15
T1 construct: endogenous in cells; host or cells: MCF-7
T1 sequence (P03372 1-595): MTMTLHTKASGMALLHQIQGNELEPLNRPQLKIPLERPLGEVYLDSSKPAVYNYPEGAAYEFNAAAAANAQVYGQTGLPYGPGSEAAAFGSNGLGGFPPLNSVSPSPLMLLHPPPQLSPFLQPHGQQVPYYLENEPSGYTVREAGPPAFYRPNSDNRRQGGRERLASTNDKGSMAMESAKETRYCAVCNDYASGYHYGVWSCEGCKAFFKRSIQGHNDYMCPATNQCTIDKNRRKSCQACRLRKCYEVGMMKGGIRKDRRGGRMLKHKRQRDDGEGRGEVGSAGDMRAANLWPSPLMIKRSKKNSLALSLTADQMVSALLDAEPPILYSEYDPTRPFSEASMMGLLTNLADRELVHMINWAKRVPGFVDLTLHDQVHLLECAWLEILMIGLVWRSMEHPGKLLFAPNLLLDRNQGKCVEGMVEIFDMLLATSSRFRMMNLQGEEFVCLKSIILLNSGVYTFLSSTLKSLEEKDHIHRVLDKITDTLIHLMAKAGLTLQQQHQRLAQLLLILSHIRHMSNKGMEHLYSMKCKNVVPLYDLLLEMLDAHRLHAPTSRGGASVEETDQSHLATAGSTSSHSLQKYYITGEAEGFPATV

[2] = system: T47D/PKCα; assay: Cytotoxicity in breast cancer cell lines (T47D/PKCα); type: cell-based; details: T47D/PKCα cells
[3] = system: MCF-7; assay: Cytotoxicity in breast cancer cell lines (MCF-7); type: cell-based; details: MCF-7 cells
[4] = biological target: T1, estrogen receptor α (ERα); assay: Western blot of ER protein expression (down-regulation); type: cell-based
[5] = system: MCF-7/TamR; assay: Cytotoxicity in breast cancer cell lines (MCF-7/TamR); type: cell-based; details: MCF-7/TamR cells
[6] = system: BT474; assay: Cytotoxicity in breast cancer cell lines (BT474); type: cell-based; details: BT474 cells
[7] = cited from earlier work

## C[C@]12CC[C@@H]3c4ccc(B(O)O)cc4C[C@@H](CCCCCCCCC[S+]([O-])CCCC(F)(F)C(F)(F)F)[C@H]3[C@@H]1CC[C@@H]2O (some centres unmarked) [SERD 9]
[1]
  binding to estrogen receptor α (ERα): high affinity
[2]; Homo sapiens
  IC50: 370 nM
[3]; Homo sapiens, MCF7
  IC50: 3.2 nM
[4]; FIG. 14, cell line not stated
  ER protein expression: dramatically downregulated
[5]; Homo sapiens, MCF7
  IC50: 44 nM
[6]; Homo sapiens, BT-474
  IC50: 390 nM

## CCC(=C(c1ccc(/C=C/C(=O)O)cc1)c1ccc(B(O)O)cc1)c1ccccc1 [SERD 4]
[1]
  binding to estrogen receptor α (ERα): high affinity
[3]; Homo sapiens, MCF7
  IC50: 1800 nM
[4]; MCF-7 cells, FIG. 13
  ER protein expression: dramatically downregulated
[5]; Homo sapiens, MCF7
  IC50: 1200 nM

## CC/C(=C(\c1ccc(/C=C/C(=O)O)cc1)c1ccc(B2OC(C)(C)C(C)(C)O2)cc1)c1ccccc1 [SERD 6]
[2]; Homo sapiens
  IC50: 6540 nM
[3]; Homo sapiens, MCF7
  IC50: 7730 nM
[5]; Homo sapiens, MCF7
  IC50: 4530 nM
[6]; Homo sapiens, BT-474
  IC50: 80500 nM

## C[C@]12CC[C@@H]3c4ccc(O)cc4C[C@@H](CCCCCCCCC[S+]([O-])CCCC(F)(F)C(F)(F)F)[C@H]3[C@@H]1CC[C@@H]2O (some centres unmarked) [Fulvestrant]
[7]; higher dose of 500 mg, FINDER1 and FINDER2 clinical trials
  peak blood concentration: < 25 ng/mL
[7]; higher dose of 500 mg
  time to reach steady state concentration in patient plasma: 1 month
[7]; oral
  bioavailability if administered orally: very poor bioavailability
[7]; standard intramuscular (i.m.) injection
  time to reach steady state serum concentration: 3-4 months
[4]; FIG. 14, cell line not stated
  ER protein expression: dramatically downregulated

## 4-Hydroxytamoxifen [reference compound]
[2]
  IC50: 540 nM
[3]
  IC50: 3.3 nM
[5]
  IC50: 21100 nM
[6]
  IC50: 1430 nM

— patent US20190233442A1, “SELECTIVE ESTROGEN RECEPTOR DOWN-REGULATORS (SERDS)” (Xavier University of Louisiana, priority 2016, published 2019)
